According to US20240041042A1, “1-(PYRIDYL)-5-AZINYLPYRAZOLE DERIVATIVES, AND THEIR USE FOR CONTROL OF UNDESIRED PLANT GROWTH” (Bayer Aktiengesellschaft, priority 2020, published 2024):
Where two headings read alike, the source gives them in different places.

What was measured:
Format in all cases: in vivo
[1] = tested on: Abutilon theophrasti (ABUTH); assay: Post-emergence herbicidal action against ABUTH; details: visual rating about 3 weeks after treatment vs untreated controls (100% = plants have died, 0% = like control plants)
How it was run: (§1)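 Post-emergence greenhouse spray, one-leaf stage, 600 l/ha water plus 0.5% additive; WP or EC formulations; application rates 320 g/ha or lower. Visual % damage vs untreated controls at ~3 weeks.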

Viola tricolor (VIOTR) [2] = assay: Post-emergence herbicidal action against VIOTR
How it was run: as §1

[3] = tested on: Verconica persica (VERPE); assay: Post-emergence herbicidal action against VERPE
How it was run: as §1

Zea mays (ZEAMX) = details: for Post-emergence action against ZEAMX in % (crop plant compatibility): 20 g/ha, effect in comparison to untreated controls; for Post-emergence action against ZEAMX in %: crop plant compatibility, effect vs untreated controls
How it was run: (§2)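 Greenhouse crops in sandy loam sprayed post-emergence at the one-leaf stage, 2–3 weeks after sowing, with WP or EC formulations in water plus 0.5% additive at 600 l/ha. Damage rated visually about 3 weeks later versus untreated controls (0% = like control, 100% = dead); suffixes a–c denote different doses.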

[4] = tested on: Triticum aestivum (TRZAS); details: crop plant compatibility, effect vs untreated controls
How it was run: as §2

[5] = tested on: Alopecurus myosuroides (ALOMY); assay: Post-emergence herbicidal action against ALOMY; details: visual rating about 3 weeks after treatment vs untreated controls (100% = plants have died, 0% = like control plants)
How it was run: as §1

[6] = tested on: Pharbitis purpurea (PHBPU); assay: Post-emergence herbicidal action against PHBPU
How it was run: as §1

[7] = tested on: Polygonum convolvulus (POLCO); assay: Post-emergence herbicidal action against POLCO
How it was run: as §1

[8] = tested on: Echinochloa crus-galli (ECHCG); assay: Post-emergence herbicidal action against ECHCG
How it was run: as §1

[9] = tested on: Amaranthus retroflexus (AMARE); assay: Post-emergence herbicidal action against AMARE
How it was run: as §1

Setaria viridis (SETVI) = assay: Post-emergence herbicidal action against SETVI
How it was run: as §1

Oryza sativa (ORYSA) = details: crop plant compatibility
How it was run: as §2

Avena fatua (AVEFA) = assay: Post-emergence herbicidal action against AVEFA; details: visual rating about 3 weeks after treatment
How it was run: as §1

[10] = tested on: Digitaria sanguinalis (DIGSA); assay: Post-emergence herbicidal action against DIGSA; details: visual rating about 3 weeks after treatment
How it was run: as §1

Lolium rigidum (LOLRI) = assay: Post-emergence herbicidal action against LOLRI
How it was run: as §1

[11] = tested on: Matricaria inodora (MATIN); assay: Post-emergence herbicidal action against MATIN; details: dosage 320 g/ha
How it was run: as §1

[12] = tested on: Verconica persica (VERPE); assay: Pre-emergence herbicidal action against VERPE; details: dosage 320 g/ha
How it was run: (§3)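 Greenhouse pot trial: seeds sown, soil-covered, sprayed before emergence with compound in water (0.5% additive; 600 l/ha; ≤320 g/ha). Scoring visual, ~3 weeks, 0–100% scale vs untreated.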

[13] = tested on: Amaranthus retroflexus (AMARE); assay: Pre-emergence herbicidal action against AMARE; details: 320 g/ha, visual scoring after about 3 weeks vs untreated controls
How it was run: as §3

[14] = tested on: Polygonum convolvulus (POLCO); assay: Pre-emergence herbicidal action against POLCO; details: dosage 320 g/ha
How it was run: as §3

[15] = tested on: Echinochloa crus-galli (ECHCG); assay: Pre-emergence herbicidal action against ECHCG; details: dosage 320 g/ha
How it was run: as §3

Viola tricolor (VIOTR) [16] = assay: Pre-emergence herbicidal action against VIOTR; details: 320 g/ha, Viola tricolor
How it was run: as §3

[17] = 320 g/ha, visual rating about 3 weeks after treatment
[18] = 20 g/ha, effect vs untreated controls
[19] = 80 g/ha, effect in comparison to untreated controls
[20] = 320 g/ha, effect in comparison to untreated controls

SMILES	Post-emergence action against ZEAMX in % (crop plant compatibility) (Zea mays (ZEAMX))	Post-emergence action against ZEAMX in % (Zea mays (ZEAMX); 80 g/ha)	Post-emergence action against TRZAS in % ([4]; 20 g/ha)	Post-emergence action against TRZAS in % ([4]; 80 g/ha)	Post-emergence action against ZEAMX in % (Zea mays (ZEAMX); 320 g/ha)	Post-emergence action against ORYSA in % (Oryza sativa (ORYSA); [18])	Post-emergence action against ORYSA in % (Oryza sativa (ORYSA); [19])	Post-emergence action against ORYSA in % (Oryza sativa (ORYSA); [20])	Post-emergence action against ABUTH in % ([1]; 320 g/ha)	Post-emergence action against VIOTR in % (Viola tricolor (VIOTR) [2]; 80 g/ha)	Post-emergence action against VIOTR in % (Viola tricolor (VIOTR) [2]; 320 g/ha)	Post-emergence action against VERPE in % ([3]; 320 g/ha, VERPE)	Post-emergence action against ALOMY in % ([5]; 320 g/ha)	Post-emergence action against PHBPU in % ([6]; dosage 320 g/ha)	Post-emergence action against POLCO in % ([7]; dosage 320 g/ha)	Post-emergence action against ECHCG in % ([8]; dosage 320 g/ha)	Post-emergence action against VERPE in % ([3]; dosage 80 g/ha)	Post-emergence action against AMARE in % [9, 17]	Post-emergence action against SETVI in % (Setaria viridis (SETVI); dosage 320 g/ha)	Post-emergence action against AVEFA in % (Avena fatua (AVEFA); 320 g/ha)	other results
O=C(O)COc1nn(-c2ccccn2)c(-c2ccc(F)nc2)c1C1CC1(F)F (centres unmarked) [Example I-249]	0%	20%	0%	0%					80%	80%	80%	80%									Post-emergence action against TRZAS in % ([4]; 320 g/ha): 0%
COCCOC(=O)COc1nn(-c2ncccc2F)c(-c2ccc(F)nc2)c1C1CC1 [Example I-314]	0%	10%				0%	20%		80%	90%	90%	90%	90%	90%	90%	90%	90%	90%	90%	90%	Post-emergence action against ALOMY in % ([5]; 80 g/ha): 90%; Post-emergence action against PHBPU in % ([6]; dosage 80 g/ha): 90%; Post-emergence action against ABUTH in % ([1]; 80 g/ha): 80%; Post-emergence action against ECHCG in % ([8]; dosage 80 g/ha): 90%; Post-emergence action against DIGSA in % ([10]; 80 g/ha): 90%; Post-emergence action against DIGSA in % ([10]; 320 g/ha): 90%; Post-emergence action against LOLRI in % (Lolium rigidum (LOLRI); dosage 80 g/ha): 90%; Post-emergence action against LOLRI in % (Lolium rigidum (LOLRI); dosage 320 g/ha): 90%; Post-emergence action against MATIN in % [11]: 80%; Post-emergence action against AMARE in % ([9]; 80 g/ha, visual rating about 3 weeks after treatment vs untreated controls (100% = plants have died, 0% = like control plants)): 90%; Post-emergence action against SETVI in % (Setaria viridis (SETVI); dosage 80 g/ha): 90%; Post-emergence action against AVEFA in % (Avena fatua (AVEFA); 80 g/ha): 90%
COC(=O)CCOC(=O)COc1nn(-c2ccccn2)c(-c2ccc(F)nc2)c1C1CC1(F)F (centres unmarked) [Example I-248]	0%	0%	0%	0%						80%	80%	80%		90%							
CCOC(=O)COc1nn(-c2ccccn2)c(-c2ccc(F)nc2)c1C1CC1(F)F (centres unmarked) [Example I-387]	0%	0%	0%	0%	0%																Post-emergence action against TRZAS in % ([4]; 320 g/ha): 0%
COC(=O)C(C)COC(=O)COc1nn(-c2ncccc2C(F)(F)F)c(-c2ccc(F)nc2)c1C1CC1(F)F (centres unmarked) [Example I-268]	0%	0%	0%	0%					80%	80%	80%	80%		80%							
COC(=O)[C@@H](C)Oc1nn(-c2ncccc2F)c(-c2ccnc(F)c2)c1I [Example I-138]	20%	20%	10%			0%	0%	20%	80%	80%	80%	80%		80%	80%	90%			80%		Post-emergence action against LOLRI in % (Lolium rigidum (LOLRI); dosage 320 g/ha): 90%
O=C(COc1nn(-c2ncccc2F)c(-c2ccc(F)nc2)c1C1CC1)OCC1CCCO1 (centres unmarked) [Example I-274]	10%	20%				0%			80%	80%	90%	90%	90%	80%	80%	90%	90%	90%	90%	90%	Post-emergence action against ECHCG in % ([8]; dosage 80 g/ha): 80%; Post-emergence action against DIGSA in % ([10]; 320 g/ha): 90%; Post-emergence action against LOLRI in % (Lolium rigidum (LOLRI); dosage 80 g/ha): 80%; Post-emergence action against LOLRI in % (Lolium rigidum (LOLRI); dosage 320 g/ha): 90%; Post-emergence action against MATIN in % [11]: 90%; Post-emergence action against SETVI in % (Setaria viridis (SETVI); dosage 80 g/ha): 90%
COC(=O)CNC(=O)COc1nn(-c2ncccc2C(F)(F)F)c(-c2cncc(F)c2)c1Br [Example I-205]		0%		10%	0%		0%	10%													Pre-emergence action against VERPE in % [12]: 100%; Pre-emergence action against AMARE in % [13]: 80%; Pre-emergence action against POLCO in % [14]: 80%; Pre-emergence action against ECHCG in % [15]: 80%; Post-emergence action against TRZAS in % ([4]; 320 g/ha): 10%; Pre-emergence action against VIOTR in % (Viola tricolor (VIOTR) [16]): 100%

Second part, led by results:

Post-emergence action against ZEAMX in % (crop plant compatibility) (Zea mays (ZEAMX))	Post-emergence action against ZEAMX in % (Zea mays (ZEAMX); 80 g/ha)	Post-emergence action against TRZAS in % ([4]; 20 g/ha)	Post-emergence action against TRZAS in % ([4]; 80 g/ha)	Post-emergence action against ZEAMX in % (Zea mays (ZEAMX); 320 g/ha)	Post-emergence action against ORYSA in % (Oryza sativa (ORYSA); [18])	Post-emergence action against ORYSA in % (Oryza sativa (ORYSA); [19])	Post-emergence action against ORYSA in % (Oryza sativa (ORYSA); [20])	SMILES	Post-emergence action against ABUTH in % ([1]; 320 g/ha)	Post-emergence action against VIOTR in % (Viola tricolor (VIOTR) [2]; 80 g/ha)	Post-emergence action against VIOTR in % (Viola tricolor (VIOTR) [2]; 320 g/ha)	Post-emergence action against VERPE in % ([3]; 320 g/ha, VERPE)	Post-emergence action against ALOMY in % ([5]; 320 g/ha)	Post-emergence action against PHBPU in % ([6]; dosage 320 g/ha)	Post-emergence action against POLCO in % ([7]; dosage 320 g/ha)	Post-emergence action against ECHCG in % ([8]; dosage 320 g/ha)	Post-emergence action against VERPE in % ([3]; dosage 80 g/ha)	Post-emergence action against AMARE in % [9, 17]	Post-emergence action against SETVI in % (Setaria viridis (SETVI); dosage 320 g/ha)	Post-emergence action against AVEFA in % (Avena fatua (AVEFA); 320 g/ha)	other results
0%	0%	0%	20%	10%	0%	0%	0%	COCCOC(=O)COc1nn(-c2cccnc2C)c(-c2cncc(F)c2)c1Br [II-40]	80%	90%	90%	90%	90%	80%	80%	90%	80%	80%	90%	90%	Post-emergence action against POLCO in % ([7]; dosage 80 g/ha): 80%
0%	0%	0%	0%	20%	0%	0%	0%	CCOC(=O)COc1nn(-c2cccnc2C)c(-c2ccc(F)nc2)c1Br [II-46]			90%	90%	80%		80%						
0%	0%	0%	10%	0%	0%	0%	0%	Cc1ncccc1-n1nc(OCC(=O)O)c(Br)c1-c1cncc(F)c1 [II-38]	80%	90%	90%	90%	100%	80%	90%	90%	80%	80%	90%	90%	
0%	0%	0%	20%	20%	0%	0%	0%	Cc1ncccc1-n1nc(OCC(=O)OCc2ccccn2)c(Br)c1-c1cncc(F)c1 [II-39]	80%	80%	90%	90%	90%	90%		90%	80%	80%	90%	90%	
